{
  "source": "BindingDB's records for doi:10.1073/pnas.83.22.8784",
  "about": "(The Oregon Health Sciences University, 1986)",
  "key": {"[1]": {"target": "T1, Alpha-2C adrenergic receptor (Rattus norvegicus, UniProt P22086)", "T1 sequence (P22086 whole entry)": "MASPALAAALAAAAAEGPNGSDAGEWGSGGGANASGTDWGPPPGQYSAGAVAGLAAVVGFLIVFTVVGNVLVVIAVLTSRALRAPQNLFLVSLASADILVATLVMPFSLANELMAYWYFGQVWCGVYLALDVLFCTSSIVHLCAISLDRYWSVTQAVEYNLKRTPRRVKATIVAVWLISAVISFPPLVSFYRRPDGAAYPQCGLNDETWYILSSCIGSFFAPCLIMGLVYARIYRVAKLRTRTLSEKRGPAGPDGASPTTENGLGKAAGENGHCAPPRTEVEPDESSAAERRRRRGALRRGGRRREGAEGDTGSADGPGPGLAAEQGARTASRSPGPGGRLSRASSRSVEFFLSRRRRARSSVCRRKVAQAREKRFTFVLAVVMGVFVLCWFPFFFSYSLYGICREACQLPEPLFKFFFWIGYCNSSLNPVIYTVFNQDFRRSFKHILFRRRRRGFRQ"}, "[2]": {"target": "T2, Alpha-1A adrenergic receptor (Rattus norvegicus, UniProt P43140)", "T2 sequence (P43140 whole entry)": "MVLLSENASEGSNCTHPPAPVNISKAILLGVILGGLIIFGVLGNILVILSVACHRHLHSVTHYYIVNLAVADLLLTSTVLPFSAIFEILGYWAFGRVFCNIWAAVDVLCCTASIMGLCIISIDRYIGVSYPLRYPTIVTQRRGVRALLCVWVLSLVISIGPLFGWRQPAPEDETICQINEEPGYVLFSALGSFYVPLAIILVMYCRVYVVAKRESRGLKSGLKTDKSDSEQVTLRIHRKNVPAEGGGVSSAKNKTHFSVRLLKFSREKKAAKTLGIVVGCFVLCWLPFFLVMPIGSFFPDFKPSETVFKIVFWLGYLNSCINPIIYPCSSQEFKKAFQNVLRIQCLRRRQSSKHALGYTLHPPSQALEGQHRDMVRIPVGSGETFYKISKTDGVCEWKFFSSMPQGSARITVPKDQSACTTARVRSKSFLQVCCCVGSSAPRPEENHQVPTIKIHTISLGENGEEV"}, "[3]": {"target": "5-hydroxytryptamine receptor 2A (Rattus norvegicus, UniProt P14842)", "sequence (P14842 whole entry)": "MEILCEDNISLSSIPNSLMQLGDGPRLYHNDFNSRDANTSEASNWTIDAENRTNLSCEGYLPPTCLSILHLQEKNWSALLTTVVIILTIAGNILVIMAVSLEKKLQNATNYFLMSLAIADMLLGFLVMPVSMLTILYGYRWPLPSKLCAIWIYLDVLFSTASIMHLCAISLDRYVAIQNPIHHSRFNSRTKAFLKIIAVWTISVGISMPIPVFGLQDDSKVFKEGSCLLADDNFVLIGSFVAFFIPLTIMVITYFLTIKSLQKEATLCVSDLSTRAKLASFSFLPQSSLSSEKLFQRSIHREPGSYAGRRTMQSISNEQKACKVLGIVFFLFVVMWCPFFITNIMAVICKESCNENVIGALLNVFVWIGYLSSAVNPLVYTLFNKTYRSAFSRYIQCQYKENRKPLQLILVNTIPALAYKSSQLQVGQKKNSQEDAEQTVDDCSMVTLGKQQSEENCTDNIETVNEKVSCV"}},
  "data": [
    {"smiles": "O=C(c1ccc(F)cc1)C1CCN(CCn2c(=O)[nH]c3ccccc3c2=O)CC1", "note": "[3-(2-{4-[(4-fluorophenyl)carbonyl]piperidin-1-yl}ethyl)-1,2,3,4-tetrahydroquinazoline-2,4-dione]", "values": [
      {"measurement": "Ki", "setting": "[1]", "value": 295, "unit": "nM"},
      {"measurement": "Ki", "setting": "[2]", "value": 72.4, "unit": "nM"}
    ]},
    {"smiles": "Cc1nc2sccn2c(=O)c1CCN1CCC(=C(c2ccc(F)cc2)c2ccc(F)cc2)CC1", "values": [
      {"measurement": "Ki", "setting": "[1]", "value": 631, "unit": "nM"},
      {"measurement": "Ki", "setting": "[2]", "value": 191, "unit": "nM"}
    ]},
    {"smiles": "NC(N)=NN=Cc1c(Cl)cccc1Cl", "note": "[Guanabenz]", "values": [
      {"measurement": "Ki", "setting": "[1]", "value": "> 10000", "unit": "nM"},
      {"measurement": "Ki", "setting": "[3]", "value": 200, "unit": "nM"}
    ]},
    {"smiles": "O=C(c1ccc(F)cc1)C1CCN(CCCCn2c(=O)[nH]c3ccccc3c2=O)CC1", "note": "[CAS_87051-46-5]", "values": [
      {"measurement": "Ki", "setting": "[1]", "value": 75.9, "unit": "nM"},
      {"measurement": "Ki", "setting": "[2]", "value": 1.86, "unit": "nM"}
    ]},
    {"smiles": "Cn1c(=O)c2c(ncn2CCN2CCC(C(=O)c3ccc(F)cc3)CC2)n(C)c1=O", "note": "[NSC_71255]", "values": [
      {"measurement": "Ki", "setting": "[1]", "value": 417, "unit": "nM"},
      {"measurement": "Ki", "setting": "[2]", "value": 120, "unit": "nM"},
      {"measurement": "Ki", "setting": "[3]", "value": 4.5, "unit": "nM"}
    ]},
    {"smiles": "Cc1nc2ccccn2c(=O)c1CCN1CCC(=C(c2ccc(F)cc2)c2ccc(F)cc2)CC1", "note": "[NSC_159037]", "values": [
      {"measurement": "Ki", "setting": "[1]", "value": 282, "unit": "nM"},
      {"measurement": "Ki", "setting": "[2]", "value": 257, "unit": "nM"},
      {"measurement": "Ki", "setting": "[3]", "value": 6, "unit": "nM"}
    ]}
  ]
}
